Source: ChEMBL document CHEMBL5512655, “Discovery of indolylacryloyl-derived oxacins as novel potential broad-spectrum antibacterial candidates” (Eur J Med Chem, 2024)
≈ marks a conversion by molar mass, not a printed value. Calls of active or inactive are those of the source. The calls are words filed in the database; no cut-off is given here.

Columns and labels:
Staphylococcus aureus [1] = assay: Antibacterial activity against methicillin-resistant Staphylococcus aureus N315 assessed as resistance development by measuring compound concentration required to inhibit measured after 18 generations; assay type: functional
Klebsiella pneumoniae [2] = assay: Potency index, ratio of norfloxacin MIC to test compound MIC for antibacterial activity against Klebsiella pneumonia assessed as inhibition of bacterial growth measured after 24 hrs incubation; assay type: functional
Escherichia coli [3] = assay: Antibacterial activity against Escherichia coli assessed as reduction in bacterial burden at 2 to 4 times of MIC measured within 5 hrs by time-dependent kinetics assay; assay type: functional, organism-based
Enterococcus faecalis [4] = assay: Antibacterial activity against Enterococcus faecalis assessed as inhibition of bacterial growth measured after 24 hrs incubation; assay type: functional
Staphylococcus aureus [5] = assay: Anti-biofilm effect in methicillin-resistant Staphylococcus aureus N315 assessed as biofilm destruction rate at 6 times of MIC; assay type: functional
Escherichia coli [6] = assay: Antibacterial activity against Escherichia coli assessed as resistance development by measuring compound concentration required to inhibit measured after 18 generations; assay type: functional
[7] = Cytotoxicity against human L02 cells assessed as cell viability at 16 ug/ml measured after 24 hrs relative to control; assay type: toxicity, cell-based; details: at 16 µg/mL, read-out: Activity
Escherichia coli [8] = assay: Induction of lipid peroxidation in Escherichia coli assessed as malondialdehyde (MDA) level production at 4 time of MIC; assay type: functional, organism-based
[9] = Hemolytic activity in human red blood cells assessed as hemolysis rate at 64 ug/ml relative to control; assay type: toxicity, cell-based, Erythrocyte; details: red blood cells (erythrocytes), at 64 µg/mL, read-out: Activity
Pseudomonas aeruginosa [10] = assay: Antibacterial activity against Pseudomonas aeruginosa assessed as inhibition of bacterial growth measured after 24 hrs incubation; assay type: functional
Escherichia coli [11] = assay: Antibacterial activity against Escherichia coli assessed as inhibition of bacterial growth measured after 24 hrs incubation; assay type: functional
Staphylococcus aureus [12] = assay: Antibacterial activity against Staphylococcus aureus ATCC 29213 assessed as inhibition of bacterial growth measured after 24 hrs incubation; assay type: functional
Staphylococcus aureus [13] = assay: Potency index, ratio of norfloxacin MIC to test compound MIC for antibacterial activity against Staphylococcus aureus assessed as inhibition of bacterial growth measured after 24 hrs incubation; assay type: functional
Staphylococcus aureus [14] = assay: Potency index, ratio of norfloxacin MIC to test compound MIC for antibacterial activity against Staphylococcus aureus ATCC 25923 assessed as inhibition of bacterial growth measured after 24 hrs incubation; assay type: functional
Staphylococcus aureus [15] = assay: Antibacterial activity against methicillin-resistant Staphylococcus aureus N315 assessed as inhibition of bacterial growth measured after 24 hrs incubation; assay type: functional
Acinetobacter baumannii = assay: Potency index, ratio of norfloxacin MIC to test compound MIC for Antibacterial activity against Acinetobacter baumannii assessed as inhibition of bacterial growth measured after 24 hrs incubation; assay type: functional
Staphylococcus aureus [16] = assay: Antibacterial activity against methicillin-resistant Staphylococcus aureus N315 assessed as resistance development measured after 18 generations; assay type: functional, organism-based
Enterococcus faecalis [17] = assay: Potency index, ratio of norfloxacin MIC to test compound MIC for antibacterial activity against Enterococcus faecalis assessed as inhibition of bacterial growth measured after 24 hrs incubation; assay type: functional
Cell membrane [18] = assay: Induction of cell membrane damage in methicillin-resistant Staphylococcus aureus N315 assessed as increase in density of red fluorescence at 4 times of MIC by Calcein-AM/PI dual staining based fluorescence microscopy; assay type: cell membranes
Calf thymus DNA [19] = assay: Binding affinity to calf thymus DNA assessed as hypochromism by spectroscopic analysis; assay type: nucleic-acid assay; details: Bos taurus
Calf thymus DNA [20] = assay: Binding affinity to calf thymus DNA by acridine orange staining based competitive binding assay; assay type: nucleic-acid assay; details: Bos taurus
Staphylococcus aureus [21] = assay: Antibacterial activity against methicillin-resistant Staphylococcus aureus N315 assessed as reduction in bacterial burden at 2 to 4 times of MIC measured upto 7 hrs by time-dependent kinetics assay; assay type: functional, organism-based
Staphylococcus aureus [22] = assay: Potency index, ratio of norfloxacin MIC to test compound MIC for antibacterial activity against Staphylococcus aureus ATCC 29213 assessed as inhibition of bacterial growth measured after 24 hrs incubation; assay type: functional
Escherichia coli [23] = assay: Reduction in metabolic activity in Escherichia coli by Alamar Blue assay; assay type: functional, organism-based
Staphylococcus aureus [24] = assay: Induction of ROS production in methicillin-resistant Staphylococcus aureus N315 assessed as fluorescence intensity at 2 times of MIC by DCFH-DA (dichlorofluorescin diacetate) probe based assay
Escherichia coli [25] = assay: Antibacterial activity against Escherichia coli ATCC 25922 assessed as inhibition of bacterial growth measured after 24 hrs incubation; assay type: functional
Staphylococcus aureus [26] = assay: Induction of lipid peroxidation in methicillin-resistant Staphylococcus aureus N315 assessed as malondialdehyde (MDA) level production; assay type: functional, organism-based
Staphylococcus aureus [27] = assay: Antibacterial activity against Staphylococcus aureus assessed as inhibition of bacterial growth measured after 24 hrs incubation; assay type: functional
Staphylococcus aureus [28] = assay: Anti-biofilm effect in methicillin-resistant Staphylococcus aureus N315 assessed as inhibition of biofilm formation by measuring reduction in exo-polysaccharide content at 6 times of MIC relative to control; assay type: functional
Escherichia coli [29] = assay: Anti-biofilm effect in Escherichia coli assessed as inhibition of biofilm formation by measuring reduction in exo-polysaccharide content at 6 times of MIC relative to control; assay type: functional
Calf thymus DNA [30] = assay: Binding affinity to calf thymus DNA assessed as DNA intercalation with drug by […] assay; assay type: nucleic-acid assay; details: Bos taurus
Staphylococcus aureus [31] = assay: Antibacterial activity against Staphylococcus aureus ATCC 25923 assessed as inhibition of bacterial growth measured after 24 hrs incubation; assay type: functional
[32] = Hemolytic activity in human red blood cells assessed as hemolysis rate at 512 ug/ml relative to control; assay type: toxicity, cell-based, Erythrocyte; details: red blood cells (erythrocytes), at 512 µg/mL, read-out: Activity
Klebsiella pneumoniae [33] = assay: Antibacterial activity against Klebsiella pneumonia assessed as inhibition of bacterial growth measured after 24 hrs incubation; assay type: functional
Staphylococcus aureus [34] = assay: Anti-biofilm effect in methicillin-resistant Staphylococcus aureus N315 assessed as biofilm destruction by measuring reduced biofilm content at MIC; assay type: functional
Cell membrane [35] = assay: Induction of cytoplasmic membrane integrity loss in methicillin-resistant Staphylococcus aureus N315 assessed as increase in fluorescence intensity at 0.5 to 6 times of MIC by Propidium iodide method; assay type: cell membranes
Escherichia coli [36] = assay: Reduction in metabolic activity in Escherichia coli at 6 times of MIC by Alamar Blue assay relative to control; assay type: functional; parameters: scale not given: the % may be the effect or the level left
Staphylococcus aureus [37] = assay: Antibacterial activity against methicillin-resistant Staphylococcus aureus N315 assessed as resistance development measured after 10 generations; assay type: functional, organism-based
Escherichia coli [38] = assay: Potency index, ratio of norfloxacin MIC to test compound MIC for antibacterial activity against Escherichia coli assessed as inhibition of bacterial growth measured after 24 hrs incubation; assay type: functional
Pseudomonas aeruginosa [39] = assay: Antibacterial activity against Pseudomonas aeruginosa ATCC 27853 assessed as inhibition of bacterial growth measured after 24 hrs incubation; assay type: functional
Escherichia coli [40] = assay: Antibacterial activity against Escherichia coli assessed as reduction in bacterial burden at 2 to 4 times of MIC measured upto 7 hrs by time-dependent kinetics assay; assay type: functional, organism-based
Escherichia coli [41] = assay: Potency index, ratio of norfloxacin MIC to test compound MIC for antibacterial activity against Escherichia coli ATCC 25922 assessed as inhibition of bacterial growth measured after 24 hrs incubation; assay type: functional
Escherichia coli [42] = assay: Anti-biofilm effect in Escherichia coli assessed as biofilm destruction rate at 6 times of MIC; assay type: functional
Escherichia coli [43] = assay: Antibacterial activity against Escherichia coli assessed as resistance development measured after 18 generations; assay type: functional, organism-based

## CCOC(=O)Cn1cc(/C=C(\C#N)C(=O)N2CCN(c3cc4c(cc3F)c(=O)c(C(=O)O)cn4CC)CC2)c2ccccc21
Staphylococcus aureus [1]
  MIC: 64 µg/mL (≈ 107 µM)
Klebsiella pneumoniae [2]
  Ratio: 1
Escherichia coli [3]
  Activity: Active
Enterococcus faecalis [4]
  MIC: 0.25 µg/mL (≈ 0.417 µM)
Staphylococcus aureus [5]
  inhibition (INH): >60%
Escherichia coli [6]
  MIC: 32 µg/mL (≈ 53.4 µM)
[7]
  viability at 24 h, 16 ug/ml: 80%
Escherichia coli [8]
  Activity: Active
[9]
  hemolysis at 64 ug/ml: < 5%
Pseudomonas aeruginosa [10]
  MIC: 0.5 µg/mL (≈ 0.834 µM)
Escherichia coli [11]
  MIC: 0.25 µg/mL (≈ 0.417 µM)
Staphylococcus aureus [12]
  MIC: 0.25 µg/mL (≈ 0.417 µM)
Staphylococcus aureus [13]
  Ratio: 1
Staphylococcus aureus [14]
  Ratio: 1
Staphylococcus aureus [15]
  MIC: 0.25 µg/mL (≈ 0.417 µM)
Acinetobacter baumannii
  Ratio: 1
Staphylococcus aureus [16]
  Activity: Active
Enterococcus faecalis [17]
  Ratio: 1
Cell membrane [18]
  Activity: Active
Calf thymus DNA [19]
  Activity: Active
Calf thymus DNA [20]
  Activity: Active
Staphylococcus aureus [21]
  Activity: Active
Staphylococcus aureus [22]
  Ratio: 1
Escherichia coli [23]
  Activity: Dose-Dependent Effect
Staphylococcus aureus [24]
  Activity: >50%
Escherichia coli [25]
  MIC: 0.5 µg/mL (≈ 0.834 µM)
Staphylococcus aureus [26]
  Activity: Dose-Dependent Effect
Staphylococcus aureus [27]
  MIC: 0.25 µg/mL (≈ 0.417 µM)
Staphylococcus aureus [28]
  inhibition (INH): <50%
Escherichia coli [29]
  inhibition (INH): <50%
Calf thymus DNA [30]
  Activity: Active
Staphylococcus aureus [31]
  MIC: 0.25 µg/mL (≈ 0.417 µM)
[32]
  hemolysis at 512 ug/ml: < 5%
Klebsiella pneumoniae [33]
  MIC: 0.5 µg/mL (≈ 0.834 µM)
Staphylococcus aureus [34]
  inhibition (INH): 68.8%
Cell membrane [35]
  Activity: Active
Escherichia coli [36]
  Activity: >50%
Staphylococcus aureus [37]
  Activity: inactive
Escherichia coli [38]
  Ratio: 1
Pseudomonas aeruginosa [39]
  MIC: 0.5 µg/mL (≈ 0.834 µM)
Escherichia coli [40]
  Activity: Active
Escherichia coli [41]
  Ratio: 1
Escherichia coli [42]
  inhibition (INH): >60%
Escherichia coli [43]
  Activity: Active
